The values that follow come from patent publication US20170089887A1, “CONTRACTILITY ASSAY” (Nano3D Biosciences, Inc, priority 2011, published 2017).

One data set concerns preterm labor. Conditions: cited from earlier work; for Onsef of action: clinical dose per Table 1; for Delay in delivery for 48 hrs: clinical treatment of preterm labor.
The conditions of data set [1]: cited from earlier work.
In data set [2] the test system is myometrial smooth muscle cells. Kind of data set: CBiO Assay (contraction of magnetically 3D bioprinted rings). In kind it is cell-based, human. On the procedure: We developed an assay, the CBiO Assay (contractility BiO Assay) to mimic uterine contractility in vitro. The basis of this assay is one in which cells are magnetically 3D bioprinted into 3D rings (e.g., 0.125″ outer diameter, 0.0625″ inner diameter) in 384-well plates. After printing, the magnetic field is removed, and these rings contract immediately (<24 h), as cells within the ring contract, rearrange, and compact the ring.
Along with this CBiO assay, a mobile device-based imaging system (n3Dock) was used to image and measure whole plates of rings (FIG. 3). This imaging system is driven by an iPod Touch (Apple Computer, CA) that was programmed to automatically image plates at regular intervals (≧1 s) for the length of the experiment using a freely available app for download (Experimental Assistant, Nano3D Biosciences). Using the n3Dock to image rings is possible given the fine camera resolution of the iPod (5 MP, resolution=250 μm) (Timm, 2013), and the brown color of the ring imparted by the NS that provides contrast against the lightness of the surrounding media. As a result, the iPod captures images of whole plates in a compact dock that fits within most standard incubators. Of course, any smart phone or pad or tablet equipped with a camera could be used herein.
From the same tissue, cells were grown in vitro as monolayer cultures and then harvested. […]

A further data set has as its system myometrial strips. Kind of data set: Wire myography of ex vivo myometrial strips in organ bath. The arrangement: species or system human. As to conditions: 1 μM-1 mM. The procedure: Ex vivo tissue was also tested for comparison to the CBiO Assay. Uterine biopsies obtained from cesarean sections were cut into myometrial strips (10×2×2 mm) mounted in an organ chamber system bath (10 mL) containing Kreb's buffer maintained at 37° C. and bubbled with 5% CO2/95% O2 to maintain the pH at 7.4. Eight uterine strips were obtained form each individual biopsy. The strips were equilibrated for 1 h starting from a resting tension of 1 g and spontaneous uterine contractility was stabilized for isometric tension recording. […] Two uterine strips were exposed to each tocolytic drug, thereby conducting duplicate experiments for each drug. […] All tocolytic doses used were based from previous human myometrial contractility studies. […] For the ex vivo tissue contractile activity, myometrial strips were mounted in a myograph organ bath system. […] The contractile inhibitory response was the area change at 5 h for the CBiO Assay, and the AUC for myography (FIG. 7). The contractile inhibitory response (CIR) in this experiment was defined as the percent change in ring image pixels before and after drug exposure. Thus, FIG. 7 reports a change in size rather than a rate. However, rates can be reported if desired.

Read-outs that look alike come from different tables or passages of the source. Bridge positions count the residues as written; N and C are the ends. Square brackets hold non-standard residues; d marks the D form. Peptide text beside a SMILES is read from it. Orn = NCCC[C@H](N)C(=O)O; Mpa = O=C(O)CCS

Turning to `CCOc1ccc(C[C@H]2NC(=O)CCSSC[C@@H](C(=O)N3CCC[C@H]3C(=O)N[C@@H](CCCN)C(=O)NCC(N)=O)NC(=O)[C@H](CC(N)=O)NC(=O)[C@H]([C@@H](C)O)NC(=O)[C@H]([C@@H](C)CC)NC2=O)cc1` [Atosiban] ([Mpa][dY](Et)ITNCP[Orn]G-NH2; disulfide 1-6), in the data set on preterm labor, the Onsef of action is 1 hr^63 and the “Delay in delivery for 48 hrs” value is 93%^64. Besides, the “Cmax (Peak plasma concentration)” value in data set [1] (clinical dose per Table 1) is reported as 442 ng/ml^63.
Take `COc1ccc2c(c1)c(CC(=O)O)c(C)n2C(=O)c1ccc(Cl)cc1` [Indomethacin]: the Onsef of action in the data set on preterm labor (as recommended by the manufacturer) was 2 h. Besides, in the data set on preterm labor, the “Delay in delivery for 48 hrs” value is 90-94%^58-61. The “Cmax (Peak plasma concentration)” value in data set [1] (clinical dose 50 mg oral, then 25 mg every 6 hrs, as recommended by the manufacturer) is 2 µg/mL. Moreover, the “IND/NIF preference ratio (PR)” value in data set [2] (Patient 1, area change at 5 h) is 0.75; in data set [2] (Patient 2, area change at 5 h), 0.97; in the data set on myometrial strips (Patient 1, AUC) it was 0.48; in the data set on myometrial strips (Patient 2, AUC) it was 0.92.
